Publication PMC10686834, “Targeting myeloid chemotaxis to reverse prostate cancer therapy resistance” (Nature, 2023)
Entries after “also recorded” stand apart in the source; their conditions may differ.

Tested on: patients with ARSI-resistant mCRPC
Test: Phase 1 trial of AZD5069 plus enzalutamide: safety and tolerability (DLTs, treatment-emergent adverse events, NCI-CTCAE v.4.0)
Type: in vivo
Text: The primary trial objective was to evaluate the safety and tolerability of the combination. Key secondary objectives were to evaluate pharmacokinetic–pharmacodynamic parameters and antitumour activity.
Eligible patients were consenting patients aged ≥18 years, who had mCRPC with histologically confirmed prostate adenocarcinoma histology, documented cancer progression at the time of trial entry by Response Evaluation Criteria in Solid Tumors (v.1.1) and/or Prostate Cancer Working Group 2 criteria, and PSA of ≥10 ng ml^−1 at screening.
The dose-escalation phase used a rule-based 3 + 3 design, with an initial three patients enrolled per dose level. If none of the first three patients experienced a DLT, dose escalation proceeded to the next dose level. […] If fewer than two of six patients at any dose level experienced a DLT, dose escalation continued to the next level. If at least two out of up to six patients experienced a DLT, dose escalation stopped and this dose level was defined as the maximum administered dose. Once this maximum administered dose was defined, the maximum tolerated dose (MTD) was confirmed at the dose level below the maximum administered dose. At least six evaluable patients were required to establish the MTD at a specific dose level. […] Intra-patient dose escalation was not permitted. Start of dosing between the first and second patient enrolled to each dose level was staggered by 1 week. Once the MTD was determined in the phase 1 study, the recommended phase 2 dose was determined on the basis of available data, including but not limited to safety and response.
DLTs were defined as described in the study protocol. […] Prophylaxis with growth factor support or antipyretics were not permitted. Investigators determined whether an adverse event was related to the study drugs. If a patient experienced clinically significant and/or unacceptable toxicity, including a DLT, not attributable to the disease or disease-related processes, dosing was interrupted or the dose was reduced and supportive therapy was administered as required.

`C[C@@H](Oc1cc(NS(=O)(=O)N2CCC2)nc(SCc2cccc(F)c2F)n1)[C@@H](O)CO` [AZD5069] was tested, and the “TEAE Anemia, All G” value (AZD5069 40 mg BD (n=3)) was 1 (33) n (%), the “TEAE Anemia, G≥3” value (AZD5069 40 mg BD (n=3)) was 0 (0) n (%) and the “TEAE Aphasia, All G” value (AZD5069 40 mg BD (n=3)) was 0 (0) n (%). For the same compound, the “TEAE Aphasia, G≥3” value (AZD5069 40 mg BD (n=3)) was 0 (0) n (%), the “TEAE Arthralgia, All G” value (AZD5069 40 mg BD (n=3)) was 0 (0) n (%) and the “TEAE Arthralgia, G≥3” value (AZD5069 40 mg BD (n=3)) was 0 (0) n (%). The “TEAE Aspartate aminotransferase increased, All G” value (AZD5069 40 mg BD (n=3)) was 0 (0) n (%), the “TEAE Aspartate aminotransferase increased, G≥3” value (AZD5069 40 mg BD (n=3)) was 0 (0) n (%) and the “TEAE Constipation, All G” value (AZD5069 40 mg BD (n=3)) was 0 (0) n (%). The “TEAE Constipation, G≥3” value (AZD5069 40 mg BD (n=3)) was 0 (0) n (%), the “TEAE Death, All G” value (AZD5069 40 mg BD (n=3)) was 0 (0) n (%) and the “TEAE Death, G≥3” value (AZD5069 40 mg BD (n=3)) was 0 (0) n (%). The “TEAE Decreased appetite, All G” value (AZD5069 40 mg BD (n=3)) was 0 (0) n (%), the “TEAE Decreased appetite, G≥3” value (AZD5069 40 mg BD (n=3)) was 0 (0) n (%) and the “TEAE Diarrhoea, All G” value (AZD5069 40 mg BD (n=3)) was 0 (0) n (%). The “TEAE Diarrhoea, G≥3” value (AZD5069 40 mg BD (n=3)) was 0 (0) n (%), the “TEAE Dry skin, All G” value (AZD5069 40 mg BD (n=3)) was 0 (0) n (%) and the “TEAE Dry skin, G≥3” value (AZD5069 40 mg BD (n=3)) was 0 (0) n (%). For the same compound, the “TEAE Fatigue, All G” value (AZD5069 40 mg BD (n=3)) was 0 (0) n (%), the “TEAE Fatigue, G≥3” value (AZD5069 40 mg BD (n=3)) was 0 (0) n (%) and the “TEAE Headache, All G” value (AZD5069 40 mg BD (n=3)) was 0 (0) n (%). For the same compound, the “TEAE Headache, G≥3” value (AZD5069 40 mg BD (n=3)) was 0 (0) n (%), the “TEAE Hypophosphataemia, All G” value (AZD5069 40 mg BD (n=3)) was 0 (0) n (%) and the “TEAE Hypophosphataemia, G≥3” value (AZD5069 40 mg BD (n=3)) was 0 (0) n (%). For the same compound, the “TEAE Nausea, All G” value (AZD5069 40 mg BD (n=3)) was 1 (33) n (%), the “TEAE Nausea, G≥3” value (AZD5069 40 mg BD (n=3)) was 0 (0) n (%) and the “TEAE Neutrophil decreased, All G” value (AZD5069 40 mg BD (n=3)) was 2 (67) n (%). The “TEAE Neutrophil decreased, G≥3” value (AZD5069 40 mg BD (n=3)) was 0 (0) n (%), the “TEAE Oedema genital, All G” value (AZD5069 40 mg BD (n=3)) was 0 (0) n (%) and the “TEAE Oedema genital, G≥3” value (AZD5069 40 mg BD (n=3)) was 0 (0) n (%). For the same compound, the “TEAE Platelet decreased, All G” value (AZD5069 40 mg BD (n=3)) was 0 (0) n (%), the “TEAE Platelet decreased, G≥3” value (AZD5069 40 mg BD (n=3)) was 0 (0) n (%) and the “TEAE Pruritus, All G” value (AZD5069 40 mg BD (n=3)) was 1 (33) n (%). For the same compound, the “TEAE Pruritus, G≥3” value (AZD5069 40 mg BD (n=3)) was 0 (0) n (%), the “TEAE Skin infection, All G” value (AZD5069 40 mg BD (n=3)) was 0 (0) n (%) and the “TEAE Skin infection, G≥3” value (AZD5069 40 mg BD (n=3)) was 0 (0) n (%). The “TEAE Vomiting, All G” value (AZD5069 40 mg BD (n=3)) was 1 (33) n (%), the “TEAE Vomiting, G≥3” value (AZD5069 40 mg BD (n=3)) was 0 (0) n (%) and the “TEAE White blood cell decreased, All G” value (AZD5069 40 mg BD (n=3)) was 0 (0) n (%). The “TEAE White blood cell decreased, G≥3” value (AZD5069 40 mg BD (n=3)) was 0 (0) n (%), the “dose-limiting toxicity (DLT)” value (AZD5069 40 mg BD to 320 mg BD plus enzalutamide 160 mg OD, 21 patients evaluable for DLTs) was “did not observe any DLT; also recorded: without dose-limiting toxicity” and the “TEAE Anemia, All G” value (AZD5069 80 mg BD (n=4)) was 0 (0) n (%). The “TEAE Anemia, G≥3” value (AZD5069 80 mg BD (n=4)) was 0 (0) n (%), the “TEAE Aphasia, All G” value (AZD5069 80 mg BD (n=4)) was 0 (0) n (%) and the “TEAE Aphasia, G≥3” value (AZD5069 80 mg BD (n=4)) was 0 (0) n (%). The “TEAE Arthralgia, All G” value (AZD5069 80 mg BD (n=4)) was 0 (0) n (%), the “TEAE Arthralgia, G≥3” value (AZD5069 80 mg BD (n=4)) was 0 (0) n (%) and the “TEAE Aspartate aminotransferase increased, All G” value (AZD5069 80 mg BD (n=4)) was 0 (0) n (%). The “TEAE Aspartate aminotransferase increased, G≥3” value (AZD5069 80 mg BD (n=4)) was 0 (0) n (%), the “TEAE Constipation, All G” value (AZD5069 80 mg BD (n=4)) was 0 (0) n (%) and the “TEAE Constipation, G≥3” value (AZD5069 80 mg BD (n=4)) was 0 (0) n (%). The “TEAE Death, All G” value (AZD5069 80 mg BD (n=4)) was 0 (0) n (%), the “TEAE Death, G≥3” value (AZD5069 80 mg BD (n=4)) was 0 (0) n (%) and the “TEAE Decreased appetite, All G” value (AZD5069 80 mg BD (n=4)) was 0 (0) n (%). For the same compound, the “TEAE Decreased appetite, G≥3” value (AZD5069 80 mg BD (n=4)) was 0 (0) n (%), the “TEAE Diarrhoea, All G” value (AZD5069 80 mg BD (n=4)) was 0 (0) n (%) and the “TEAE Diarrhoea, G≥3” value (AZD5069 80 mg BD (n=4)) was 0 (0) n (%). The “TEAE Dry skin, All G” value (AZD5069 80 mg BD (n=4)) was 0 (0) n (%), the “TEAE Dry skin, G≥3” value (AZD5069 80 mg BD (n=4)) was 0 (0) n (%) and the “TEAE Fatigue, All G” value (AZD5069 80 mg BD (n=4)) was 1 (25) n (%). The “TEAE Fatigue, G≥3” value (AZD5069 80 mg BD (n=4)) was 0 (0) n (%), the “TEAE Headache, All G” value (AZD5069 80 mg BD (n=4)) was 0 (0) n (%) and the “TEAE Headache, G≥3” value (AZD5069 80 mg BD (n=4)) was 0 (0) n (%).
